This note sets out measurements from ChEMBL document CHEMBL4371069, “Click chemistry for improvement in selectivity of quinazoline-based kinase inhibitors for mutant epidermal growth factor receptors” (Bioorg Med Chem Lett, 2019).

The target of series [1] is Epidermal growth factor receptor (Homo sapiens, UniProt P00533). The class given is ADME, cell-based, Sf21.
Description: Inhibition of human N-terminal GST-tagged EGFR kinase domain (696 to end residues) expressed in baculovirus infected sf21 cells using poly(Glu, Tyr) 4:1 as substrate
The target of series [2] is Epidermal growth factor receptor (Homo sapiens, UniProt P00533, L858R/T790M). Kind of series: biochemical. Format: cell-based, Sf21.
Series [3] deals with PC-9. Kind of series: Antiproliferative activity against human PC9 cells harboring EGFR exon-19 del mutant after 72 hrs by EZ-Cytox assay. The class given is functional, cell-based. The conditions noted are these: PC-9, 72 h.
The test system of series [4] is A549. In words: Antiproliferative activity against human A549 cells harboring wild-type EGFR after 72 hrs by EZ-Cytox assay. Particulars: A549, 72 h. The class given is ADME, cell-based.
Series [5] has as its system SK-BR-3. In words: Antiproliferative activity against HER2-dependant human SKBR3 cells after 72 hrs by EZ-Cytox assay. Format: ADME, cell-based. Particulars: SK-BR-3, 72 h.
A short description of series [6]: Safety index, ratio of compound IC50 to afatinib IC50 for antiproliferative activity against HER2-dependant human SKBR3 cells. Format: cell-based. Particulars: SK-BR-3 cells (HER2-dependent), read-out: Ratio IC50.
In series [7] the target is T1, CYP1A2 (Homo sapiens, UniProt P05177).
T1 sequence (P05177 whole entry): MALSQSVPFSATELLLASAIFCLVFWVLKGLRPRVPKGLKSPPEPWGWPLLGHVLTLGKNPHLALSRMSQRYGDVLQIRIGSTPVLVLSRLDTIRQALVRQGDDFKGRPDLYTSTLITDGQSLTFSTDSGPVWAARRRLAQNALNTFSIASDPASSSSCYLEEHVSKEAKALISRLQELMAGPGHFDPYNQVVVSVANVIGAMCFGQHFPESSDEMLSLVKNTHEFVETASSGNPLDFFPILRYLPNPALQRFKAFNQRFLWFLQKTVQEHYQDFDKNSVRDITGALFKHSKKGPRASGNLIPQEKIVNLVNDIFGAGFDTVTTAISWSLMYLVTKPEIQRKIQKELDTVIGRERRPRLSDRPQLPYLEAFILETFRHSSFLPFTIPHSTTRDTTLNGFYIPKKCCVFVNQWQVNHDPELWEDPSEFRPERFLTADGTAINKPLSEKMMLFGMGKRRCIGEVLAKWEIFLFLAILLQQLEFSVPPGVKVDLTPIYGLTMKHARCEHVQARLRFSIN
Kind of series: Inhibition of CYP1A2 in human liver microsomes assessed as residual activity at 10 uM using phenacetin as substrate preincubated for 5 mins followed by NADPH addition and measured after 15 mins by LC-MS/MS analysis relative to control. The conditions noted are these: probe phenacetin, read-out: Activity. The class given is ADME. (In general: Liver microsomes are vesicles of endoplasmic reticulum, rich in cytochrome P450 enzymes.)

The target in series [8] is T2, CYP2A6 (Homo sapiens, UniProt P11509).
T2 sequence (P11509 whole entry): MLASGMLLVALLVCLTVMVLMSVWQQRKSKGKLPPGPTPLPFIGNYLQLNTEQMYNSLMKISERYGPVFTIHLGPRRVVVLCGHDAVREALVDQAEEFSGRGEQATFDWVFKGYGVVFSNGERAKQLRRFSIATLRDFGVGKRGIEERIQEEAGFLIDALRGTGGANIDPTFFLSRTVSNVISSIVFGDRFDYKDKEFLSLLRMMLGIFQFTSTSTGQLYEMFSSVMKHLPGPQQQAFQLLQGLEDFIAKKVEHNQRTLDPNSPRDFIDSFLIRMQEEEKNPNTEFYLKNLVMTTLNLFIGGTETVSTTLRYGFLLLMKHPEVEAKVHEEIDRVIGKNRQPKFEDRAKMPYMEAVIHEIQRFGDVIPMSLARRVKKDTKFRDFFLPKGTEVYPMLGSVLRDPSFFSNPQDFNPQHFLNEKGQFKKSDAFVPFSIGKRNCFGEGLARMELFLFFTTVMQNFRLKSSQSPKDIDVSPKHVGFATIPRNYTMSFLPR
Kind of series: Inhibition of CYP2A6 in human liver microsomes assessed as residual activity at 10 uM using coumarin as substrate preincubated for 5 mins followed by NADPH addition and measured after 15 mins by LC-MS/MS analysis relative to control. The class given is ADME. The conditions noted are these: probe coumarin, read-out: Activity.

The target in series [9] is T3, CYP2B6 (Homo sapiens, UniProt P20813).
T3 sequence (P20813 whole entry): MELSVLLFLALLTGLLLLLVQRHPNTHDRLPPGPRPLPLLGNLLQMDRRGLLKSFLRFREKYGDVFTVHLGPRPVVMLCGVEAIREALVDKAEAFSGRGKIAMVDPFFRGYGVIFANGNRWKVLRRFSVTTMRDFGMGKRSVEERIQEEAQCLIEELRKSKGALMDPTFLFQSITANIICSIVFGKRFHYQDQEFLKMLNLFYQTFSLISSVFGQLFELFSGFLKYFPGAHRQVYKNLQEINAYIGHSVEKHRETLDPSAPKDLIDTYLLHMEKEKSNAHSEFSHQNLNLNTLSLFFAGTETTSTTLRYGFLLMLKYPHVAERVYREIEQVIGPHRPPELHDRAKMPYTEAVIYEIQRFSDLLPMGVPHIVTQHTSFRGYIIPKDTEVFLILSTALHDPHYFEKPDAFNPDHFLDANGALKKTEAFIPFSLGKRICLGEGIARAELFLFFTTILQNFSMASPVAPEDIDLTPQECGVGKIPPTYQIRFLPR
In words: Inhibition of CYP2B6 in human liver microsomes assessed as residual activity at 10 uM using bupropion as substrate preincubated for 5 mins followed by NADPH addition and measured after 15 mins by LC-MS/MS analysis relative to control. The class given is ADME. The conditions noted are these: probe bupropion, read-out: Activity.

Series [10] deals with CYP2C9 (Homo sapiens, UniProt P11712). Kind of series: Inhibition of CYP2C9 in human liver microsomes assessed as residual activity at 10 uM using tolbutamide as substrate preincubated for 5 mins followed by NADPH addition and measured after 15 mins by LC-MS/MS analysis relative to control. The class given is ADME. Particulars: probe tolbutamide, read-out: Activity.
Series [11] addresses CYP2C19 (Homo sapiens, UniProt P33261). In words: Inhibition of CYP2C19 in human liver microsomes assessed as residual activity at 10 uM using S-mephenytoin as substrate preincubated for 5 mins followed by NADPH addition and measured after 15 mins by LC-MS/MS analysis relative to control. The class given is ADME. Particulars: probe S-mephenytoin, read-out: Activity.
Series [12] addresses CYP2D6 (Homo sapiens, UniProt P10635). Kind of series: Inhibition of CYP2D6 in human liver microsomes assessed as residual activity at 10 uM using dextromethorphan as substrate preincubated for 5 mins followed by NADPH addition and measured after 15 mins by LC-MS/MS analysis relative to control. Format: ADME. Particulars: probe dextromethorphan, read-out: Activity.
Series [13] concerns the target CYP2E1 (Homo sapiens, UniProt P05181). In words: Inhibition of CYP2E1 in human liver microsomes assessed as residual activity at 10 uM using chlorzoxazone as substrate preincubated for 5 mins followed by NADPH addition and measured after 15 mins by LC-MS/MS analysis relative to control. The class given is ADME. Particulars: probe chlorzoxazone, read-out: Activity.

In series [14] the target is hERG (KCNH2) (Homo sapiens, UniProt Q12809). Kind of series: Inhibition of human ERG expressed in HEK cell at 10 uM at -70 mV holding potential by patch clamp method relative to control. The conditions noted are these: HEK cells that express hERG. (In general: In patch-clamp work, channel activity is measured electrically.)
Series [15] has as its system HepG2. Kind of series: Cytotoxicity against human HepG2 cells after 24 hrs by LDH release assay. The class given is cell-based. The conditions noted are these: HepG2, 24 h.

Chain of Epidermal growth factor receptor (Homo sapiens, UniProt P00533) (P00533 whole entry): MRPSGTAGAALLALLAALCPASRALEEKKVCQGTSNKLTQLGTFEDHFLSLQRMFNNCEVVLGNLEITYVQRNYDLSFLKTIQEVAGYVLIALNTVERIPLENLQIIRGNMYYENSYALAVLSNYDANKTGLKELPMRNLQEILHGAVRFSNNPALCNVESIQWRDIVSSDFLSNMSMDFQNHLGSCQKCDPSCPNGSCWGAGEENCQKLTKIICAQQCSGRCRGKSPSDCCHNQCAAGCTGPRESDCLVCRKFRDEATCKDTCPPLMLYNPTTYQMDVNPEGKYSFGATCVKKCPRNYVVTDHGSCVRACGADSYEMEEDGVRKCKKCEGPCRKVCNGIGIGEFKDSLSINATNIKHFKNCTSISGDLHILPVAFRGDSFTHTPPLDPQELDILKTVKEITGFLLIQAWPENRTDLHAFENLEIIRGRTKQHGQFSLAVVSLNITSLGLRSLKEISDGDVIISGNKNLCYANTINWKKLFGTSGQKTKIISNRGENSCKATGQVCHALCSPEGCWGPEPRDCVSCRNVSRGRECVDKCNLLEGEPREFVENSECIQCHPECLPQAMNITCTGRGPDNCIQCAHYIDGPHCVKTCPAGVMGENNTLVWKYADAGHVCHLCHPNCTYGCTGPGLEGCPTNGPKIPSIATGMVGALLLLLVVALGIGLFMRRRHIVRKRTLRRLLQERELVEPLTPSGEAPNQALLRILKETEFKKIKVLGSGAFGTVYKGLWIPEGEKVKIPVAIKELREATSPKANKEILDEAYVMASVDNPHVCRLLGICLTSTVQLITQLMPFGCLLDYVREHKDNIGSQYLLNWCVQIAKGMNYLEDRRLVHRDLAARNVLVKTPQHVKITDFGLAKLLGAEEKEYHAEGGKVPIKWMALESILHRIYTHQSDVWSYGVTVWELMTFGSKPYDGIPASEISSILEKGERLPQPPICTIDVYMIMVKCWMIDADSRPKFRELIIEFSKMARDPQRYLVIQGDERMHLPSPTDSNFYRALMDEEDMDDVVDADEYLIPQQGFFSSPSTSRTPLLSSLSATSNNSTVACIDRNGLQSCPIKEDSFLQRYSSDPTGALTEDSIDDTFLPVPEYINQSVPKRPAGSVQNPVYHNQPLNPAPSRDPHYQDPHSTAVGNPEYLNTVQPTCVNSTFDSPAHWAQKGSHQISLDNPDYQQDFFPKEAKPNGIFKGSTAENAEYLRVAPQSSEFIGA
Chain of CYP2E1 (P05181 whole entry): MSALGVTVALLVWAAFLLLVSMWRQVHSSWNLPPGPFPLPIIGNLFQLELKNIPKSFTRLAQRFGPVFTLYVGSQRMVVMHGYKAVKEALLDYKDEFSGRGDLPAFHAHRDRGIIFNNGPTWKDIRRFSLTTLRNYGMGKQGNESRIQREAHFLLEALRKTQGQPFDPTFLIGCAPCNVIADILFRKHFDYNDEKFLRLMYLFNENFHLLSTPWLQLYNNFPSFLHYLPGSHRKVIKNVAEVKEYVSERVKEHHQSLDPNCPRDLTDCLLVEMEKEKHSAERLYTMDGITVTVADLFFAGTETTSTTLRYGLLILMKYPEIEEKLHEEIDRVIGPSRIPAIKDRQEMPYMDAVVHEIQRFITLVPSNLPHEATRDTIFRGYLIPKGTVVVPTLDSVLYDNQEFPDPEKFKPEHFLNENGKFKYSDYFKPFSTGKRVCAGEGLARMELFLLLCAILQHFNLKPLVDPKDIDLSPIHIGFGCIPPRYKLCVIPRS
Chain of CYP2C19 (P33261 whole entry): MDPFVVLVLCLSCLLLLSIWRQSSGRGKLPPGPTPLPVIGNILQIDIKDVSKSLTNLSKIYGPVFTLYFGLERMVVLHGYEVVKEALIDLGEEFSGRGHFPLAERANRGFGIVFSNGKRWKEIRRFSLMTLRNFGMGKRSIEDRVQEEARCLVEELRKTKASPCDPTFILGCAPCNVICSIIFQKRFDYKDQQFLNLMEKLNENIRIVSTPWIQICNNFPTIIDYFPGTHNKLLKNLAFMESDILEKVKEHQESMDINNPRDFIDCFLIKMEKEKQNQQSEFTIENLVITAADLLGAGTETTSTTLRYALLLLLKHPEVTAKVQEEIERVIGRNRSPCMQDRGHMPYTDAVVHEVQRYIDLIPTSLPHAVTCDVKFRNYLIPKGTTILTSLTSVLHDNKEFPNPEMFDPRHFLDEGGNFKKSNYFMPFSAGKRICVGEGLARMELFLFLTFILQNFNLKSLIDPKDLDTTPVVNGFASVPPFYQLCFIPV
Chain of CYP2C9 (P11712 whole entry): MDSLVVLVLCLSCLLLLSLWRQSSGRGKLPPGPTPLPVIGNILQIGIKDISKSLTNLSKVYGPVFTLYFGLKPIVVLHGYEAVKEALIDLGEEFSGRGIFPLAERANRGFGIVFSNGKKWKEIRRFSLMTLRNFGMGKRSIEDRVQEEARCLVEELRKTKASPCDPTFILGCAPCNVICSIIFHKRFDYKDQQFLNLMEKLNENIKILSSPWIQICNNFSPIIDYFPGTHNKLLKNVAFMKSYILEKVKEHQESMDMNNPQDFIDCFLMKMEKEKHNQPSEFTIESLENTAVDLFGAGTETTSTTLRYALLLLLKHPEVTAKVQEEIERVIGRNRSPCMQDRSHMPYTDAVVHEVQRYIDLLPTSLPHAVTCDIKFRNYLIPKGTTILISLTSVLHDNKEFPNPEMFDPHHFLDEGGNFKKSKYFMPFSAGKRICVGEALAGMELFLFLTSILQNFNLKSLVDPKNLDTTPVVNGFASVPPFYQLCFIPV
Chain of hERG (KCNH2) (Q12809 whole entry): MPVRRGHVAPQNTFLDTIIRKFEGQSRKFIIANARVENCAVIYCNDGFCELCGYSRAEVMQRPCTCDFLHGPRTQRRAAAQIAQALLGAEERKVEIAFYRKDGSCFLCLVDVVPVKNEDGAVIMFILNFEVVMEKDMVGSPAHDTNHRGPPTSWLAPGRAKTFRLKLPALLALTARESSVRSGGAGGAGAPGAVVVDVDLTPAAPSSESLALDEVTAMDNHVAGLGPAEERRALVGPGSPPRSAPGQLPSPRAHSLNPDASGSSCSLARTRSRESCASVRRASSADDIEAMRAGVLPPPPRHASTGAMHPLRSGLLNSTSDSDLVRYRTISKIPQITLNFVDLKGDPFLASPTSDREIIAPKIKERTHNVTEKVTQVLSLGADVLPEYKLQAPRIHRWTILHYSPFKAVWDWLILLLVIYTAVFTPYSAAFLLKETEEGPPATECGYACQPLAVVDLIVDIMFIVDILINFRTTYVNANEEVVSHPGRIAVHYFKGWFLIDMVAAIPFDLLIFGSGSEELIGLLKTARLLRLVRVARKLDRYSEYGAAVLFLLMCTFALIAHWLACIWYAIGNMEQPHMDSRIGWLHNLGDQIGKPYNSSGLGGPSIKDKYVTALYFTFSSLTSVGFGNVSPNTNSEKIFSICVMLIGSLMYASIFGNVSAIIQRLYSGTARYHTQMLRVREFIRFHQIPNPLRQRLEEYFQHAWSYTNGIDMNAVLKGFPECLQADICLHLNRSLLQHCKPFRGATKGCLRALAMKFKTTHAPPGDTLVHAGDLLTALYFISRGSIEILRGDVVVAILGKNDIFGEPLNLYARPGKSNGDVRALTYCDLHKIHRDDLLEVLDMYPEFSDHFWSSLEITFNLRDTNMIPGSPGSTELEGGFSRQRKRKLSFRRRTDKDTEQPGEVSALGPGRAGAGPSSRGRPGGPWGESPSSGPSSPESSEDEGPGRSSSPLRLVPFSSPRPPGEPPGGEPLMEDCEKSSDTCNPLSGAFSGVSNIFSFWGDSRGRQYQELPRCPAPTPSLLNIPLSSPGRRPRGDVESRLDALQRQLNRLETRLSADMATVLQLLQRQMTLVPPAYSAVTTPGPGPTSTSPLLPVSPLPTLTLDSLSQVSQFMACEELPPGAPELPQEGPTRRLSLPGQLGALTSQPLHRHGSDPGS
Chain of CYP2D6 (P10635 whole entry): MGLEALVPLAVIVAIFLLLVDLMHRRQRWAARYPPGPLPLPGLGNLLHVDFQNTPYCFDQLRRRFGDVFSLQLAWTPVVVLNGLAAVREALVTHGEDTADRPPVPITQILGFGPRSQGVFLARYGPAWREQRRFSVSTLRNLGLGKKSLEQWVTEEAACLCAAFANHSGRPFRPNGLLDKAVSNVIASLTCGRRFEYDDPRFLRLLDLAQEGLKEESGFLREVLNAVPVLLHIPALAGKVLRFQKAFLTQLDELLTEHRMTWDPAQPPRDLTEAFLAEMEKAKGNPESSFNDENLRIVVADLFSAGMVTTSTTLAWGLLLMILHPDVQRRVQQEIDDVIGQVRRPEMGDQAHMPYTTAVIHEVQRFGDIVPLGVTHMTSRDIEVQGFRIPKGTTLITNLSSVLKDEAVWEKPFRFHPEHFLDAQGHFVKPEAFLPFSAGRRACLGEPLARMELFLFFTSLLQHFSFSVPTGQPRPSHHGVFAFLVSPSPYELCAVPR

In the case of `C=CC(=O)Nc1cc2c(Nc3ccc(F)c(Cl)c3)ncnc2cc1OCc1cn(Cc2ccc(Cl)cc2)nn1`, the 50% inhibitory concentration (IC50) in series [1] is 62 nM; in series [2], 12 nM; in series [3], 0.9 nM; in series [4], 2040 nM; in series [5], 266 nM; in series [15], 60000 nM. For the same molecule, the selectivity ratio in [6] is > 95. Further, the activity at 0.25 h, 10 µM in [7] came out at 60.8%; in [8], 89%; in series [9], 78.8%; in [10], 16.3%; in series [11], 56.4%; in series [12] it was 24.4%. Also, the activity at 0.25 h, 10 µM in series [13] is 63.4%. The molecule also came in with an inhibition at 10 µM in [14] of 33.6%.
Take `C=CC(=O)Nc1cc2c(Nc3ccc(F)c(Cl)c3)ncnc2cc1OCc1cn(Cc2cccc(F)c2)nn1`: the IC50 was found to be 68 nM in [1]; 4 nM in series [2]; 0.9 nM in series [3]; 5500 nM in series [4]; 115 nM in [5]; 29000 nM in series [15]. In addition, the selectivity ratio in series [6] was > 95. The activity at 0.25 h, 10 µM in series [7] is 52.5%; in series [8], 91%; in series [9] it was 67.1%; in series [10], 11.8%; in [11], 53.5%; in [12], 14.9%. For the same molecule, the activity at 0.25 h, 10 µM in [13] was found to be 59%. Also, in [14], testing at 10 µM gave an inhibition of 20.7%.
On to `C=CC(=O)Nc1cc2c(Nc3ccc(F)c(Cl)c3)ncnc2cc1OCc1cn(Cc2ccc(F)cc2)nn1`, for which the half-maximal inhibitory concentration (IC50) in [1] came out at 45 nM; in series [2], 6 nM; in series [3], 1 nM; in [4] it was 4310 nM; in series [5], 143 nM; in [15], 27000 nM. Moreover, the selectivity ratio in [6] is > 95. Also, the activity at 0.25 h, 10 µM in [7] was determined as 51.1%; in series [8], 82.7%; in series [9], 67.9%; in [10], 13.5%; in series [11], 51.1%; in [12], 12.2%. Further, in [13], the activity at 0.25 h, 10 µM was 60.9%. In addition, 10 µM produced 46.2% inhibition in [14].

In general, IC50 refers to the point on the concentration scale where inhibition reaches its midpoint. As usually defined, the inhibition is the change of the read-out against control, counted positive when it falls.
